Experiments:
[1] = (§1) The drug is tested on WLS-077 corresponding to human gut metagenome with ENA study accession number: PRJEB37062 and ENA sample accession number: ERS12561750 for biotransformation under anaerobic condition. The drug concentrations were measured over 9 timepoints collected between 0 and 24 hours of incubation by liquid-chromatography-coupled mass spectrometry (LC–MS); conditions: 2 µM
[2] = human gut metagenome, 24 h, 2 µM
[3] = human gut metagenome, 24 h, 2 µM; remark: listed apart in the source
[4] = human gut metagenome, 24 h, 2 µM; remark: listed apart in the source
[5] = as §1, with “Z-013” for “WLS-077”, “rabbit” for “human”, “ERS12561813” for “ERS12561750”; conditions: 2 µM
[6] = human gut metagenome, 24 h, 2 µM; remark: listed apart in the source
[7] = human gut metagenome, 24 h, 2 µM; remark: listed apart in the source
[8] = as §1, with “WLS-069” for “WLS-077”, “ERS12561748” for “ERS12561750”; conditions: 2 µM
[9] = human gut metagenome, 24 h, 2 µM; remark: listed apart in the source
Further: call rule not given here.

Row | Compound | Bacterial Biotransformation [1] | Bacterial Biotransformation [2] | Bacterial Biotransformation [3] | Bacterial Biotransformation [4] | Bacterial Biotransformation [5] | Bacterial Biotransformation [6] | Bacterial Biotransformation [7] | Bacterial Biotransformation [8] | Bacterial Biotransformation [9]
1 | COc1cc(NC(C)CCCN)c2ncccc2c1.O=P(O)(O)O.O=P(O)(O)O (stereo unspecified) [PRIMAQUINE PHOSPHATE] | Compound NOT metabolized | Compound NOT metabolized | Compound NOT metabolized | Compound NOT metabolized | Compound NOT metabolized | Compound NOT metabolized | Compound NOT metabolized | Compound metabolized | Compound NOT metabolized
2 | C=C[C@H]1CN2CC[C@H]1C[C@H]2[C@H](O)c1ccnc2ccc(OC)cc12.C=C[C@H]1CN2CC[C@H]1C[C@H]2[C@H](O)c1ccnc2ccc(OC)cc12.O.O.O=S(=O)(O)O [QUININE SULFATE] | Compound NOT metabolized | Compound metabolized | Compound NOT metabolized | Compound metabolized | Compound NOT metabolized | Compound NOT metabolized | Compound NOT metabolized | Compound NOT metabolized | Compound NOT metabolized
3 | O=C(NC(Cc1cc(=O)[nH]c2ccccc12)C(=O)O)c1ccc(Cl)cc1 (stereo unspecified) [REBAMIPIDE] | Compound NOT metabolized | Compound metabolized | Compound NOT metabolized | Compound NOT metabolized | Compound NOT metabolized | Compound NOT metabolized | Compound NOT metabolized | Compound NOT metabolized | Compound metabolized
4 | CCOc1cc(CC(=O)N[C@@H](CC(C)C)c2ccccc2N2CCCCC2)ccc1C(=O)O [REPAGLINIDE] | Compound metabolized | Compound metabolized | Compound metabolized | Compound metabolized | Compound NOT metabolized | Compound NOT metabolized | Compound metabolized | Compound metabolized | Compound NOT metabolized
5 | CCN(C)C(=O)Oc1cccc([C@H](C)N(C)C)c1.O=C(O)C(O)C(O)C(=O)O [RIVASTIGMINE TARTRATE] | Compound NOT metabolized | Compound NOT metabolized | Compound NOT metabolized | Compound NOT metabolized | Compound NOT metabolized | Compound NOT metabolized | Compound NOT metabolized | Compound NOT metabolized | Compound NOT metabolized
6 | O=C(O)CCC(=O)O.O=C(O[C@H]1CN2CCC1CC2)N1CCc2ccccc2[C@@H]1c1ccccc1 [SOLIFENACIN SUCCINATE] | Compound NOT metabolized | Compound metabolized | Compound metabolized | Compound metabolized | Compound NOT metabolized | Compound NOT metabolized | Compound metabolized | Compound metabolized | Compound NOT metabolized
7 | O=C(CCCN1CCC2(CC1)C(=O)NCN2c1ccccc1)c1ccc(F)cc1 [SPIPERONE] | Compound NOT metabolized | Compound NOT metabolized | Compound metabolized | Compound NOT metabolized | Compound NOT metabolized | Compound NOT metabolized | Compound NOT metabolized | Compound metabolized | Compound NOT metabolized
8 | COc1ccc(C(CN(C)C)C2(O)CCCCC2)cc1 (stereo unspecified) [VENLAFAXINE] | Compound NOT metabolized | Compound NOT metabolized | Compound NOT metabolized | Compound NOT metabolized | Compound NOT metabolized | Compound NOT metabolized | Compound NOT metabolized | Compound NOT metabolized | Compound NOT metabolized

More lines, now with the values ahead:

Row | Bacterial Biotransformation [1] | Bacterial Biotransformation [2] | Bacterial Biotransformation [3] | Bacterial Biotransformation [4] | Bacterial Biotransformation [5] | Bacterial Biotransformation [6] | Bacterial Biotransformation [7] | Bacterial Biotransformation [8] | Bacterial Biotransformation [9] | Compound
9 | Compound NOT metabolized | Compound NOT metabolized | Compound NOT metabolized | Compound NOT metabolized | Compound NOT metabolized | Compound NOT metabolized | Compound NOT metabolized | Compound NOT metabolized | Compound NOT metabolized | CC(N)C12CC3CC(CC(C3)C1)C2 (stereo unspecified) [RIMANTADINE]
10 | Compound NOT metabolized | Compound NOT metabolized | Compound NOT metabolized | Compound NOT metabolized | Compound NOT metabolized | Compound NOT metabolized | Compound NOT metabolized | Compound NOT metabolized | Compound NOT metabolized | CCCN(CCC)CCc1cccc2c1CC(=O)N2 [ROPINIROLE]
11 | Compound metabolized | Compound metabolized | Compound metabolized | Compound metabolized | Compound NOT metabolized | Compound NOT metabolized | Compound NOT metabolized | Compound metabolized | Compound NOT metabolized | CN[C@H]1CC[C@@H](c2ccc(Cl)c(Cl)c2)c2ccccc21 [SERTRALINE]
12 | Compound metabolized | Compound metabolized | Compound metabolized | Compound metabolized | Compound NOT metabolized | Compound metabolized | Compound metabolized | Compound metabolized | Compound metabolized | O=C1C(CC[S+]([O-])c2ccccc2)C(=O)N(c2ccccc2)N1c1ccccc1 (stereo unspecified) [SULFINPYRAZONE]
13 | Compound NOT metabolized | Compound NOT metabolized | Compound NOT metabolized | Compound NOT metabolized | Compound NOT metabolized | Compound NOT metabolized | Compound NOT metabolized | Compound NOT metabolized | Compound NOT metabolized | CCOc1ccccc1OCCN[C@H](C)Cc1ccc(OC)c(S(N)(=O)=O)c1.Cl [TAMSULOSIN HYDROCHLORIDE]
14 | Compound NOT metabolized | Compound NOT metabolized | Compound NOT metabolized | Compound NOT metabolized | Compound NOT metabolized | Compound NOT metabolized | Compound NOT metabolized | Compound NOT metabolized | Compound NOT metabolized | c1ccc2[nH]c(-c3cscn3)nc2c1 [THIABENDAZOLE]
15 | Compound NOT metabolized | Compound NOT metabolized | Compound NOT metabolized | Compound NOT metabolized | Compound NOT metabolized | Compound NOT metabolized | Compound NOT metabolized | Compound NOT metabolized | Compound NOT metabolized | CCN(CC)CCNC(=O)c1cc(S(C)(=O)=O)ccc1OC [TIAPRIDE]
16 | Compound NOT metabolized | Compound NOT metabolized | Compound NOT metabolized | Compound NOT metabolized | Compound NOT metabolized | Compound NOT metabolized | Compound NOT metabolized | Compound NOT metabolized | Compound NOT metabolized | CC(C)(C)NC[C@H](O)COc1nsnc1N1CCOCC1.O=C(O)/C=C\C(=O)O [TIMOLOL MALEATE]
17 | Compound NOT metabolized | Compound NOT metabolized | Compound NOT metabolized | Compound NOT metabolized | Compound NOT metabolized | Compound NOT metabolized | Compound NOT metabolized | Compound NOT metabolized | Compound NOT metabolized | CC[C@@]1(O)C(=O)OCc2c1cc1n(c2=O)Cc2cc3c(CN(C)C)c(O)ccc3nc2-1 [TOPOTECAN]
18 | Compound NOT metabolized | Compound NOT metabolized | Compound NOT metabolized | Compound NOT metabolized | Compound NOT metabolized | Compound NOT metabolized | Compound NOT metabolized | Compound NOT metabolized | Compound NOT metabolized | COc1cc(C(=O)NCc2ccc(OCCN(C)C)cc2)cc(OC)c1OC [TRIMETHOBENZAMIDE]
19 | Compound metabolized | Compound NOT metabolized | Compound metabolized | Compound metabolized | Compound NOT metabolized | Compound metabolized | Compound metabolized | Compound metabolized | Compound NOT metabolized | CCOC(=O)C1=C[C@]2(CC)CCCN3CCc4c(n1c1ccccc41)[C@@H]32 [VINPOCETINE]

From ChEMBL document CHEMBL5724914, “Linking interpersonal differences in gut microbiota composition and drug biotransformation activity” (2024)
